# US11058756B2, “Compositions and methods of treating autoimmune disease by reducing enterococcus” (YALE UNIVERSITY, priority 2017, dated 2021)
# How the values were obtained:
# [1] = system: (NZWxBXSB)F1 mice; assay: Oral antibiotics in drinking water: mortality, clinical outcome, proteinuria and organ histology in the autoimmune hybrid model; assay type: in vivo, mouse
# Source text: 6-week-old male (NZWxBXSB)F1 mice and C57BL/6J mice were used in this study except if noted otherwise. (NZWxBXSB)F1 were bred by mating NZW/LaJ females with BXSB/MpJ males obtained from Jackson Laboratory (Bar Harbor, Me., USA). Parental littermates of (NZWxBXSB)F1 were randomly mixed with littermates from other parental cages 21 days after birth to equilibrate the microbiomes from different cages and parental origin. All mice were maintained in a specific-pathogen-free environment. (NZWxBXSB)F1 mice were provided with water and a standard laboratory diet ad libitum (2018 Harlan Teklad, South Easton, Mass., USA). They were supplied with hardwood chips as bedding and were housed in a temperature-controlled, air-conditioned room on a 12-hr light-dark cycle. Germ-free (GF) C57BL/6 mice were kept under sterile conditions in CBC's (Class Biologically Clean, Madison, Wis., USA) Quad flexible film isolators (Softwall), exposed to a 12-hr light/dark cycle and provided standard, autoclaved tap water and mouse chow (2018S Harlan Teklad, South Easton, Mass., USA) ad libitum. To exclude a Th17 bias, a PCR for segmented filamentous bacteria (SFB) was performed on fecal DNA from all mice involving Th17 studies. Fecal SFB detection at 6-8 weeks of age that correlates with ileal SFB colonization was performed as described (Barman et al., 2008, Infect Immun, 76, 907-915; Kriegel et al., 2011, Proc Natl Acad Sci USA, 108, 11548-11553). All Th17 data was derived from SFB-negative animals.
# (§1) Mice were cohoused for 3 to 4 weeks before antibiotic treatment to allow for equilibration of the microbiota. Single antibiotic or broad-spectrum antibiotic administration consisted of metronidazole (1 g/liter; Fisher Scientific), neomycin (1 g/liter; Fisher Scientific), ampicillin (1 g/liter; Sigma) and vancomycin (0.5 g/liter; Acros Organics) in the drinking water for up to 22 weeks or a targeted regiment for 2 weeks and then replaced with regular water for the duration of the experiment. For broad-spectrum antibiotic experiments (vancomycin, ampicillin, metronidazole, and neomycin combined), sweetener (Equal, 4 g/L) was added to both the antibiotics and control water due to the metallic taste of metronidazole. Twenty-four hours after cessation of antibiotic water, mice were administered 1×10^6 CFUs of vancomycin-resistant E. gallinarum via oral gavage, isolated from liver tissue of a vancomycin-treated mouse that continued to show signs of autoimmune disease (high-level resistance was confirmed by vanC gene PCR). E. gallinarum was grown at 37° C. in Gifu Anaerobic Broth (HIMEDIA Laboratories) to early stationary phase under anaerobic conditions (82% N2, 15% CO2, 3% H2 by volume) in an anaerobic chamber and diluted in PBS to 10^7 CFUs.
# Samples were obtained at autopsy and fixed in 10% neutral formalin, and histological sections were stained with hematoxylin and eosin (H&E) and scored in a blinded fashion. Glomerulonephritis was scored on a scale of 0-4 based on the intensity and extent of histopathological changes (Klopfleisch, 2013, BMC Vet Res, 9, 123). A grade of 0 was given to kidneys without glomerular lesions; grade 1 consisted of minimal thickening of the mesangium; grade 2 contained noticeable increases in both mesangial and glomerular cellularity; grade 3 was characterized by the preceding conditions with superimposed inflammatory exudates and capsular adhesions; and grade 4 consisted of obliterated glomerular architecture in greater than 70% of glomeruli. […]
# [2] = system: (NZWxBXSB)F1 mice; assay: Serum ELISAs for anti-dsDNA, anti-RNA, anti-β2GPI IgG, ERV gp70 protein and anti-ERV gp70 immune complexes; assay type: in vivo, mouse; conditions: single antibiotic in drinking water; 16 weeks of age; FIG. 1B-1C
# Source text: as §1
# (§2) Serum antibodies specific for dsDNA and b2GPI were determined using standardized ELISAs (anti-dsDNA antibody, Abcam; and, Mouse/Rat Apolipoprotein H Antibody, R&D Systems; respectively). Anti-RNA was determined by ELISA using defined positive controls (Human/Mouse RNA Polymerase II Antibody, R&D systems). Anti-ERV gp70 ICs and ERV gp70 protein were determined by OD450 signal comparisons (Evans et al., 1990, J Virol, 64, 6176-6183). For anti-dsDNA ELISAs, DNA-BIND™ (Corning) plates were coated with 100 μg/ml salmon sperm DNA (Fisher Scientific) and blocked in 0.1M PBS, 3.0% BSA, 5.0% FBS. The serum was diluted 1:1000 for the assay and incubated for 1 hour at 37° C. Wells were washed and incubated for 1 hour at 37° C. with rabbit anti-mouse IgG (Fisher Scientific) conjugated to HRP and developed with TMB substrate solution. 2M sulfuric acid (Sigma) solution was used to stop development. The concentration of anti-dsDNA was determined by reading the absorbance at 450 nm/570 nm reference.
# (§3) For anti-RNA ELISAs, DNA-BIND™ (Corning) plates were coated with […] yeast RNA (Ambion) and blocked in 0.1M PBS, 0.05% Tween-20, 5.0% FBS. The serum was diluted 1:1000 for the assay and incubated for 1 hour at 37° C. Wells were washed and incubated for 1 hour at 37° C. with rabbit anti-mouse IgG (Fisher Scientific) conjugated to HRP and developed with TMB substrate solution. 2M sulfuric acid (Sigma) solution was used to stop development. The concentration of anti-RNA IgG was determined by reading the absorbance at 450 nm/570 nm reference.
# For anti-b2GPI ELISAs, Corning® 96-well EIA/RIA easy Wash™ clear flat-bottom polystyrene high-bind microplates were coated with […] recombinant b2GPI/ApoH (R&D Systems) and blocked in Pierce Protein-Free (PBS) Blocking Buffer (Thermo Scientific). The serum was diluted 1:100 for the assay and incubated at room temperature for 2 hours on a shaker. Wells were washed and incubated while shaking for 30 minutes at room temperature with goat anti-mouse IgG (Fisher Scientific) conjugated to HRP and developed with TMB substrate solution. 2M sulfuric acid (Sigma) solution was used to stop development. The concentration of anti-b2GPI was determined by reading the absorbance at 450 nm/650 nm reference. […]
# [3] = system: E. gallinarum; assay: Assessment of bacterial translocation and tissue burden (anaerobic tissue cultures, CFU); assay type: in vivo, mouse; conditions: (NZWxBXSB)F1 mice, antibiotics in drinking water; 16-18 weeks of age; FIG. 1K-1N
# Source text: Mice were cohoused for 3 to 4 weeks before antibiotic treatment to allow for equilibration of the microbiota. Single antibiotic or broad-spectrum antibiotic administration consisted of metronidazole (1 g/liter; Fisher Scientific), neomycin (1 g/liter; Fisher Scientific), ampicillin (1 g/liter; Sigma) and vancomycin (0.5 g/liter; Acros Organics) in the drinking water for up to 22 weeks or a targeted regiment for 2 weeks and then replaced with regular water for the duration of the experiment. For broad-spectrum antibiotic experiments (vancomycin, ampicillin, metronidazole, and neomycin combined), sweetener (Equal, 4 g/L) was added to both the antibiotics and control water due to the metallic taste of metronidazole. […] E. gallinarum was grown at 37° C. in Gifu Anaerobic Broth (HIMEDIA Laboratories) to early stationary phase under anaerobic conditions (82% N2, 15% CO2, 3% H2 by volume) in an anaerobic chamber and diluted in PBS to 10^7 CFUs.
# 14-, 16- and 18-week-old mice underwent sterile laparotomy and nose, mouth, small intestine (luminal and adherent fractions), mesenteric veins, mesenteric lymph nodes (MLN), liver and spleen were aseptically collected in BBL Mycoflask Thioglycollate (Fluid) Prepared Media (BD Diagnostic Systems) and incubated for 72 hours in anaerobic conditions at 37° C. Gifu Media Agar plates were streaked with the content from the BBL Mycoflask Thioglycollate and incubated for 48 hours in an anaerobic chamber at 37° C. Colony Formation Units (CFU) were counted and concentration determined per milligram of tissue. Single colonies were grown in Gifu anaerobic media for 48 hours in an anaerobic chamber at 37° C. and aliquots from each sample were collected and centrifuge for 10 minutes at 10000×g. DNA was extracted from bacterial pellets using DNeasy Blood and Tissue kit (Qiagen) and submitted to PCR amplification of the 16S region and Sanger sequencing. In addition, purified DNA was used for eubacterial, Enterococcus genus and Enterococcus gallinarum PCR assays.
# [4] = biological target: T1, AhR (Mus musculus, UniProt P30561); assay: AhR antagonist experiment in E. gallinarum-gavaged (NZWxBXSB)F1 mice; assay type: in vivo; conditions: 4 weeks; for Th17-inducing effects of E. gallinarum (MLN Th17 cell frequency): CH223191 i.p. 300 μg/mouse/day, 5 days a week, ABX-pretreated, E. gallinarum gavaged, FIG. 20; for autoantibodies-inducing effects of E. gallinarum (serum anti-RNA and anti-dsDNA IgG): CH223191 i.p. 5 days a week, FIG. 4O-4P
# T1 construct: mice were injected i.p. with 300 mg of CH223191 (a selective AhR antagonist; Sigma-Aldrich) or mock 5 days a week; from tissue; host or cells: whole animal: (NZWxBXSB)F1 hybrid mice
# T1 sequence (P30561 10-848): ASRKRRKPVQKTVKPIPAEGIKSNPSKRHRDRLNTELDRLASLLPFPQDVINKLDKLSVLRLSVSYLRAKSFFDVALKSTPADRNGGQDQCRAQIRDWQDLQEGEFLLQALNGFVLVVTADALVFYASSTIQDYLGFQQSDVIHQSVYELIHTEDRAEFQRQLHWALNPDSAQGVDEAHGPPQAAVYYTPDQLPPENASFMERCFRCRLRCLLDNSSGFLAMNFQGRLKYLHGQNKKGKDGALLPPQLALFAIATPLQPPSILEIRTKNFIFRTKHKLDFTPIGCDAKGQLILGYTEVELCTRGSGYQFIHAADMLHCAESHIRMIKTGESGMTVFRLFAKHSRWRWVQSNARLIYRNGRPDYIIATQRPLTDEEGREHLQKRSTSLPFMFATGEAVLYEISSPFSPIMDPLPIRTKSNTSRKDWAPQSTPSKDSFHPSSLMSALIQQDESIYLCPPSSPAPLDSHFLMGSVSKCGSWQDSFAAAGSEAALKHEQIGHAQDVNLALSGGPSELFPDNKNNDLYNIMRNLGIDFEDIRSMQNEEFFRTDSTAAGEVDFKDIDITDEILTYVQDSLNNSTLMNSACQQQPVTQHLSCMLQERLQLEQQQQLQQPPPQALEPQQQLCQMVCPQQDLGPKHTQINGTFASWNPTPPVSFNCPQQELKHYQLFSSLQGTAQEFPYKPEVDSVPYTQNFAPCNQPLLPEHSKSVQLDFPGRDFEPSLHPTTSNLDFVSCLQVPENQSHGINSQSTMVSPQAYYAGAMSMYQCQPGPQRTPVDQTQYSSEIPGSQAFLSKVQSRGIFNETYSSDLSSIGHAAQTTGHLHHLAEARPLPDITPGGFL
# Method: as §2, §3
# For direct ex vivo intracellular cytokine detection, cells isolated from small intestinal lamina propria, MLN or spleen were immediately treated with GolgiStop (BD Bioscience) and surface-stained in FACS buffer (PBS, 2% bovine serum albumin, 0.2 mg of sodium azide, 2 mM EDTA) for 30 minutes in the dark at room temperature with fluorescently conjugated antibodies specific for CD3, CD4, CD11b, CD11c, CD44, CD62L, CD19, CD45, CD45R (B220), CXCR5, GITR, IL-17, IFN-g, Ly6C, NK1.1, PDCA-1, PD-1 and PSGL-1. After staining for surface antigens, some B cells and T cells were stained for intracellular cytokines using intracellular cytokine fixation buffer (eBioscience) and fluorescently conjugated antibodies specific for IL-17, IFN-g and FoxP3 (eBioscience) for 30 minutes in the dark at room temperature. Cell viability was assessed with Zombie NIR Fixable Viability Kit (BioLegend).
# (NZWxBXSB)F1 mice were treated with broad-spectrum antibiotics (vancomycin, ampicillin, neomycin and metronidazole) from 10 weeks to 14 weeks of age. 24 hours later mice were gavaged with E. gallinarum every week for 4 weeks. […]
# [5] = listed as AHR-selective antagonist
compound,measurement,setting,value
CC1(C)S[C@@H]2[C@H](NC(=O)[C@H](N)c3ccccc3)C(=O)N2[C@H]1C(=O)O [ampicillin],Mortality,"[1]; single antibiotic in drinking water from 6 weeks of age, followed for 30 weeks or until death, FIG. 1A",prevented
same,"autoimmune manifestations (proteinuria, organ histology scores)","[1]; single antibiotic in drinking water, FIG. 1D-1I",prevented
same,lupus-related autoantibodies (serum anti-dsDNA and anti-RNA IgG),[2],prevented
neomycin,clinical outcomes,[1]; neomycin 1.0 g/L in drinking water,did not alter
same,"Translocation (bacterial growth in mesenteric veins, MLN, liver, spleen)",[3],only to a lesser degree
Cc1ccccc1N=Nc1ccc(NC(=O)c2ccnn2C)c(C)c1 [CH223191],Th17-inducing effects of E. gallinarum (MLN Th17 cell frequency),[4],reverses
same,Th17-inducing effects of E. gallinarum (MLN Th17 cell frequency),[4]; [5],abrogated
same,autoantibodies-inducing effects of E. gallinarum (serum anti-RNA and anti-dsDNA IgG),[4],reverses
same,autoantibodies-inducing effects of E. gallinarum (serum anti-RNA and anti-dsDNA IgG),[4]; [5],abrogated
